This is an account of results in US9340590B2 (priority 2011, dated 2016).

Molecules are shown by their SMILES. Like-named read-outs stand apart in the source and are kept apart here. Positions of bridges follow the written chain, without caps; N, C: chain ends. Non-standard residues stand in square brackets, D forms with d. Residues, ends and D or L forms follow the SMILES beside them. Abu = CC[C@H](N)C(=O)O

Data set [1] deals with locomotor activity in male CD-1 mice. Conditions: 5 mg/kg.
A short description of a further data set: in vivo. The following applies: male, CD-1, mouse, sc, 5 mg/kg, terminal exposure (peptide plasma concentration at 2 h post peptide injection), later studies, 5 mg/kg s.c.
Data set [2] concerns the target T1, hNav1.7 (Homo sapiens, UniProt Q15858). Description: cell-based. Conditions: IonWorks Quattro, Use; read-out: IWQ Use Nav1.7. It counts as cell-based.
The target of the next data set is hNav1.5 (Homo sapiens, UniProt Q14524). Description: cell-based.
In data set [3] the target is T2, hNav1.3 (Homo sapiens, UniProt Q9NY46). Nature of the data set: cell-based. The following applies: IonWorks Quattro, read-out: IWQ Use Nav1.3.
T2 sequence (Q9NY46 whole entry, looked up): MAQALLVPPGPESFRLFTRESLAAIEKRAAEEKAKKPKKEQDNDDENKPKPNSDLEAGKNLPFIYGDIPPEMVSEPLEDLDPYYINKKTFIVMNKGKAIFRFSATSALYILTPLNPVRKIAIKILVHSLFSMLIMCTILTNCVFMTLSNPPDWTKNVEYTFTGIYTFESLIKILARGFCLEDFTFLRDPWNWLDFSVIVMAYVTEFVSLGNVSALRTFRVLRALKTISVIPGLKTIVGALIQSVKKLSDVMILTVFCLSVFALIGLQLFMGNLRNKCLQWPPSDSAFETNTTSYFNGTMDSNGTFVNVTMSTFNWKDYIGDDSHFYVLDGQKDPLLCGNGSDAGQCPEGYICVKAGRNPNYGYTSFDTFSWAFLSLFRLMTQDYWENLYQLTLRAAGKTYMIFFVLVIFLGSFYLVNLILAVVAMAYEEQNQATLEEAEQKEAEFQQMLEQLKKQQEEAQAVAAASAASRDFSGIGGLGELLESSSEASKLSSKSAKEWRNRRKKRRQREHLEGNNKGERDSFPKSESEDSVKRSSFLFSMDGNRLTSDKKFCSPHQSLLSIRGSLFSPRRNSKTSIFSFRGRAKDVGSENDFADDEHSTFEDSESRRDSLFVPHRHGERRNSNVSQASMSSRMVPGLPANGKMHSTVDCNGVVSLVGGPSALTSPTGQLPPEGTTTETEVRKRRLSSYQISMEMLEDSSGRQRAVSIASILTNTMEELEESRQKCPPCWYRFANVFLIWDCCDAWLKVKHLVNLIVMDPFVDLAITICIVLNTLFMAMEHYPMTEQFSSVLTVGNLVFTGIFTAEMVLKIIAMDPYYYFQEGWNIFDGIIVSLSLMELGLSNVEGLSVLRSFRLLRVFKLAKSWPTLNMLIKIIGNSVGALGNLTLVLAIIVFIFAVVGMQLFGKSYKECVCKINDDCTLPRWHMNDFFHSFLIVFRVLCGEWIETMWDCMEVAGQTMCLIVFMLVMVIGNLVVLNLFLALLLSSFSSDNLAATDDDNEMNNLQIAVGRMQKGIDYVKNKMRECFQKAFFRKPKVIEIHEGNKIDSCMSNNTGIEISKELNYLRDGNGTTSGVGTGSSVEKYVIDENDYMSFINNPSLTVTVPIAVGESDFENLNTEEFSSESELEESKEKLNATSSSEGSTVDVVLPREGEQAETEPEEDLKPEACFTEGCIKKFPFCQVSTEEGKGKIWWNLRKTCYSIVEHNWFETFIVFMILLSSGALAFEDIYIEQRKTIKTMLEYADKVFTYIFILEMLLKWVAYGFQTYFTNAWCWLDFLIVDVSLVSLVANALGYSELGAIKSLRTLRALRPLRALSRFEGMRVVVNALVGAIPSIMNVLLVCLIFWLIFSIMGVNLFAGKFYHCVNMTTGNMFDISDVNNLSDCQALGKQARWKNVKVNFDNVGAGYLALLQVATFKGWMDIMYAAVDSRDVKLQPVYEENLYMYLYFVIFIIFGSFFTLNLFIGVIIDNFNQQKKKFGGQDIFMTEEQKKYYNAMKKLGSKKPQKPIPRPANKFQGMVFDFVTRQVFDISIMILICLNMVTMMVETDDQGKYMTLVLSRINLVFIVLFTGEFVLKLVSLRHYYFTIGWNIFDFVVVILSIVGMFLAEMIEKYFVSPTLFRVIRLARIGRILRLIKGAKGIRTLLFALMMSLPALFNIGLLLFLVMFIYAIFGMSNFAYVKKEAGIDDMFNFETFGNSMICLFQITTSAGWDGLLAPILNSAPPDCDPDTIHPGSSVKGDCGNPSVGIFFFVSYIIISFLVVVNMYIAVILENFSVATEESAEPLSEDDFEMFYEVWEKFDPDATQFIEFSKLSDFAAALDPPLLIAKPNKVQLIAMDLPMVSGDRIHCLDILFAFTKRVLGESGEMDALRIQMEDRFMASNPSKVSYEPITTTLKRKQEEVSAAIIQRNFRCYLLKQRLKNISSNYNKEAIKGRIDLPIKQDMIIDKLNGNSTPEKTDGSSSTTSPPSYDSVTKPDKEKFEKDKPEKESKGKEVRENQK
The conditions of data set [4]: human plasma, 37° C.
For data set [5] the following is noted: mouse plasma, 37° C.
The target in data set [6] is T1, hNav1.7. Nature of the data set: cell-based. The following applies: Nav1.7 Use IC50.
Data set [7] addresses T2, hNav1.3. Nature of the data set: cell-based. It counts as cell-based. The following applies: Nav1.3 Use IC50.
Data set [8] in a line: in vitro. Conditions: human, plasma.
A short description of data set [9]: in vitro. The following applies: mouse, plasma.
[10] abbreviates: incubation time 0 hr (normalisation point).
Where [11] appears, read: clamped to −110 mV, depolarized to −10 mV, 5 min after compound, n=2.

T1 sequence (Q15858 whole entry, looked up): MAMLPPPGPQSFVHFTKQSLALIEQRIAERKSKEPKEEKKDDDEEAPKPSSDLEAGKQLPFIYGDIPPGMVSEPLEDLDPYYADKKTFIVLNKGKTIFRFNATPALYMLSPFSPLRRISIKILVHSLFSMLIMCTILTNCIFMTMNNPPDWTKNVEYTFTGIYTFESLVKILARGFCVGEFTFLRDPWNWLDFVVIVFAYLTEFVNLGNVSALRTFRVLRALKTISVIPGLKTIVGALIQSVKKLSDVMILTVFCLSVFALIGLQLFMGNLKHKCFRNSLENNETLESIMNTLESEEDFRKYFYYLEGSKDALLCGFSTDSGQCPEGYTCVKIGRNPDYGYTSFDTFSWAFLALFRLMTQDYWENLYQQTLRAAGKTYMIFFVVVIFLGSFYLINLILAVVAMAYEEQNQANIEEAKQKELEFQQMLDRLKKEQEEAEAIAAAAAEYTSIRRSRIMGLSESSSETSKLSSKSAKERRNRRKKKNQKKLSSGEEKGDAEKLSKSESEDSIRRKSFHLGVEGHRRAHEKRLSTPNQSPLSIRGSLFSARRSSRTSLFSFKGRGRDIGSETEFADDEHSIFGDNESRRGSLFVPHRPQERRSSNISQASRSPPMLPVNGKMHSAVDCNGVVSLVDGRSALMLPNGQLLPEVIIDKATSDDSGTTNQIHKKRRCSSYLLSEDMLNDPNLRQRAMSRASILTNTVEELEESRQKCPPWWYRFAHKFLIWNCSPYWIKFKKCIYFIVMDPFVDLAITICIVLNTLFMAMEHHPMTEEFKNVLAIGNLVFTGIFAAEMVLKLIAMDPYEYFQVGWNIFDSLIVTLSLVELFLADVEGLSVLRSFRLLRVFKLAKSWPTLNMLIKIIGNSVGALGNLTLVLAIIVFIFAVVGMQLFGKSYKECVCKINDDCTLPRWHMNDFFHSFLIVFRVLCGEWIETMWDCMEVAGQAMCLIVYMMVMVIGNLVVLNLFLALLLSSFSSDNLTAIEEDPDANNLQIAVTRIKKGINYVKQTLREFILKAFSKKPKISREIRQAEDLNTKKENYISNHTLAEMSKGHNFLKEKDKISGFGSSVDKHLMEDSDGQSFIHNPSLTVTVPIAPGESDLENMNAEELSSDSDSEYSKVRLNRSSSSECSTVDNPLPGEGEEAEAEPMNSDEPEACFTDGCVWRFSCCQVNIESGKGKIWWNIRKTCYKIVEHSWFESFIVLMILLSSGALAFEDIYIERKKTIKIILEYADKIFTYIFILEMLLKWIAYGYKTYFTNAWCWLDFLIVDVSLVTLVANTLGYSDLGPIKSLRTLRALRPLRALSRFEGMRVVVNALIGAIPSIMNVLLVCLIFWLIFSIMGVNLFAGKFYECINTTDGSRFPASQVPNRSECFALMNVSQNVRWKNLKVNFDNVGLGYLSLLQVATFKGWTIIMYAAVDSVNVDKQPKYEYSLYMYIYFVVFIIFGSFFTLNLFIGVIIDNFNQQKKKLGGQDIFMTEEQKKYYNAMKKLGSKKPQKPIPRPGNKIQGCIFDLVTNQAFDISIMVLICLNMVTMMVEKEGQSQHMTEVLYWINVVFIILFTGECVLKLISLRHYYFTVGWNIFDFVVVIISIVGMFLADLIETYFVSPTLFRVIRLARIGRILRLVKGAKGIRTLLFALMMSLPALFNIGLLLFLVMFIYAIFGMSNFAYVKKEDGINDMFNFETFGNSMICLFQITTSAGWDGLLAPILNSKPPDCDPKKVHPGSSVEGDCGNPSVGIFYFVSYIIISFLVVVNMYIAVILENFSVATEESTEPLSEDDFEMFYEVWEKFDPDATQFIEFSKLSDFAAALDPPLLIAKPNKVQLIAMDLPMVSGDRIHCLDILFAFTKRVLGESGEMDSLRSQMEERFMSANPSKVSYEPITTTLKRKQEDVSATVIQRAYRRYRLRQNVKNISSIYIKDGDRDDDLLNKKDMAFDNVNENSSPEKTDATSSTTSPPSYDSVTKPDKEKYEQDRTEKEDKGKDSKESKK

Take `CC[C@@H]1NC(=O)[C@H](CC(=O)O)NC(=O)[C@@H]2CCCN2C(=O)[C@H](CCC(=O)O)NC(=O)[C@@H]2CSSC[C@@H]3NC(=O)[C@H](C(C)C)NC(=O)[C@H](CC(C)C)NC(=O)[C@H](CC(N)=O)NC(=O)[C@@H]4CCCN4C(=O)[C@H](CCCNC(=N)N)NC(=O)[C@H](CSSC[C@H](NC(=O)[C@@H](N)CC(=O)O)C(=O)N[C@@H](CC(C)C)C(=O)NCC(=O)N[C@@H](C)C(=O)N[C@@H](Cc4ccccc4)C(=O)N[C@@H](CCCNC(=N)N)C(=O)N[C@@H](CCCCN)C(=O)N2)NC(=O)[C@H](CSSC[C@@H](C(=O)N[C@@H](CCCCN)C(=O)N[C@@H](Cc2ccc(O)cc2)C(=O)N[C@H](C(=O)N[C@@H](Cc2ccccc2)C(N)=O)C(C)C)NC(=O)[C@H](Cc2c[nH]c4ccccc24)NC(=O)[C@H](CCCNC(=N)N)NC(=O)[C@H](Cc2c[nH]cn2)NC(=O)[C@H](CC(C)C)NC(=O)[C@H](CCCNC(=N)N)NC(=O)[C@H](CO)NC3=O)NC(=O)[C@H](CCCCN)NC(=O)[C@H](CC(=O)O)NC1=O` (H-DCLGAFRKCEPD[Abu]DKCCRPNLVCSRLHRWCKYVF-NH2; disulfide 2-17, 9-23, 16-30): in data set [1], the “behavior of animals in the open field analysis” value is listed as “moribund behavior or lethality”. In addition, the level at time molar at 2 h in the data set “in vivo” was 1720 ± 313 nM.

As to `CSCC[C@@H]1NC(=O)[C@H](Cc2ccccc2)NC(=O)CNC(=O)[C@H](CC(C)C)NC(=O)[C@@H](NC(=O)[C@@H](N)CC(=O)O)CSSC[C@@H]2NC(=O)[C@@H]3CSSC[C@@H](C(=O)N[C@@H](CCCCN)C(=O)N[C@@H](Cc4ccc(O)cc4)C(=O)N[C@H](C(=O)N[C@@H](Cc4ccccc4)C(N)=O)C(C)C)NC(=O)[C@H](Cc4c[nH]c5ccccc45)NC(=O)[C@H](CCCCN)NC(=O)[C@H](Cc4c[nH]cn4)NC(=O)[C@H]([C@@H](C)O)NC(=O)[C@H](CCCNC(=N)N)NC(=O)[C@H](CO)NC(=O)[C@H](CSSC[C@H](NC(=O)[C@H](CCCCN)NC(=O)[C@H](CCCNC(=N)N)NC1=O)C(=O)N[C@@H](Cc1cccc4ccccc14)C(=O)N1CCC[C@H]1C(=O)N[C@@H](CC(=O)O)C(=O)N[C@@H](CC(N)=O)C(=O)N[C@@H](CC(=O)O)C(=O)N[C@@H](CCCCN)C(=O)N3)NC(=O)[C@H](C(C)C)NC(=O)[C@H](CC(C)C)NC(=O)[C@H](CC(N)=O)NC(=O)[C@@H]1CCCN1C(=O)[C@H](CCCNC(=N)N)NC2=O` [SEQ ID NO: 78, [1-Nal10]GpTx-1(1-34)], the values for the IC50 on hNav1.7 [2], against hNav1.5 (IWQ Use Nav1.5 (μM)) and at hNav1.3 [3] (Use) were 150 nM, 10 µM and 210 nM, respectively. Further, the “% peptide remaining” value was 100% in data set [4] (setting [10]); 99% in [4] (incubation time 2 hr); 93% in data set [4] (incubation time 4 hr); 97% in [4] (incubation time 8 hr); 82% in data set [4] (incubation time 24 hr); 100% in [5] (setting [10]). Further, the “% peptide remaining” value in data set [5] (incubation time 2 hr) was 98%; in data set [5] (incubation time 4 hr) it was 92%; in [5] (incubation time 8 hr), 92%; in data set [5] (incubation time 24 hr), 88%.

Regarding `CC[C@H](C)[C@@H]1NC(=O)[C@@H]2CSSC[C@@H]3NC(=O)[C@H](C(C)C)NC(=O)[C@H](CC(C)C)NC(=O)[C@H](CC(N)=O)NC(=O)[C@@H]4CCCN4C(=O)[C@H](CCCNC(=N)N)NC(=O)[C@H](CSSC[C@H](N)C(=O)N[C@@H](CC(C)C)C(=O)NCC(=O)N[C@@H](Cc4ccccc4)C(=O)N[C@@H](CCSC)C(=O)N[C@@H](CCCNC(=N)N)C(=O)N[C@@H](CCCCN)C(=O)N2)NC(=O)[C@H](CSSC[C@@H](C(=O)N[C@@H](CCCCN)C(=O)N[C@@H](Cc2ccc(O)cc2)C(=O)N[C@H](C(=O)N[C@@H](Cc2ccccc2)C(N)=O)C(C)C)NC(=O)[C@H](Cc2c[nH]c4ccccc24)NC(=O)[C@H](CCCCN)NC(=O)[C@H](Cc2cnc[nH]2)NC(=O)[C@H]([C@@H](C)O)NC(=O)[C@H](CCCNC(=N)N)NC(=O)[C@H](CO)NC3=O)NC(=O)[C@H](CCCCN)NC(=O)[C@H](CC(=O)O)NC(=O)[C@H](CC(N)=O)NC(=O)[C@H](CC(=O)O)NC(=O)[C@@H]2CCCN2C1=O` [SEQ ID NO: 108] (H-CLGFMRKCIPDNDKCCRPNLVCSRTHKWCKYVF-NH2; disulfide 1-16, 8-22, 15-29), the IC50 on hNav1.5 (IonWorks Quattro, clamped to −110 mV, depolarized to −10 mV, 5 min after compound, n=2, read-out: IWQ Use Nav1.5) turned out to be 8.22 µM; at hNav1.3 [3] (setting [11]), 50 nM; at hNav1.7 [6] it was 7 nM; against hNav1.3 [7], 15 nM. The “% peptide remaining” value in [4] (setting [10]) and in [5] (setting [10]) was 100% each time. The values for the share remaining at 2 h in the data set “in vitro [8]” and in the data set “in vitro [9]” were 107% and 100%, respectively. In addition, the values for the share remaining at 4 h in the data set “in vitro [8]” and in the data set “in vitro [9]” were 92% and 95%, respectively. Also, the values for the share remaining at 8 h in the data set “in vitro [8]” and in “in vitro [9]” were 91% and 87%, respectively. Moreover, the fraction remaining at 24 h in the data set “in vitro [8]” was found to be 82%; in the data set “in vitro [9]” it was 81%.

With `CC[C@H](C)[C@@H]1NC(=O)[C@@H]2CSSC[C@@H]3NC(=O)[C@H](C(C)C)NC(=O)[C@H](CC(C)C)NC(=O)[C@H](CC(N)=O)NC(=O)[C@@H]4CCCN4C(=O)[C@H](CCCNC(=N)N)NC(=O)[C@H](CSSC[C@H](NC(=O)[C@H](CC(=O)O)NC(C)=O)C(=O)N[C@@H](CC(C)C)C(=O)NCC(=O)N[C@@H](Cc4ccccc4)C(=O)N[C@@H](CCSC)C(=O)N[C@@H](CCCNC(=N)N)C(=O)N[C@@H](CCCCN)C(=O)N2)NC(=O)[C@H](CSSC[C@@H](C(=O)N[C@@H](CCCCN)C(=O)N[C@@H](Cc2ccc(O)cc2)C(=O)N[C@H](C(=O)N[C@@H](Cc2ccccc2)C(N)=O)C(C)C)NC(=O)[C@H](Cc2c[nH]c4ccccc24)NC(=O)[C@H](CCCCN)NC(=O)[C@H](Cc2cnc[nH]2)NC(=O)[C@H]([C@@H](C)O)NC(=O)[C@H](CCCNC(=N)N)NC(=O)[C@H](CO)NC3=O)NC(=O)[C@H](CCCCN)NC(=O)[C@H](CC(=O)O)NC(=O)[C@H](CC(N)=O)NC(=O)[C@H](CC(=O)O)NC(=O)[C@@H]2CCCN2C1=O` [SEQ ID NO: 132], the IC50 on hNav1.5 (IWQ Use Nav1.5) turned out to be 12.7 µM; at hNav1.3 [3] (setting [11]), 220 nM; against hNav1.3 [7], 84 nM. The “% peptide remaining” value in [4] (setting [10]) and in data set [5] (setting [10]) was 100% in each case. Further, the fraction remaining at 2 h is 100% in the data set “in vitro [8]” and 105% in the data set “in vitro [9]”. Also, the amount remaining at 4 h in the data set “in vitro [8]” was 104%; in “in vitro [9]”, 103%. The amount remaining at 8 h was 101% in the data set “in vitro [8]” and 103% in “in vitro [9]”. For the same molecule, the results for the share remaining at 24 h in the data set “in vitro [8]” and in the data set “in vitro [9]” were 97% and 106%, respectively.

`CC[C@H](C)[C@@H]1NC(=O)[C@@H]2CSSC[C@@H]3NC(=O)[C@H](C(C)C)NC(=O)[C@H](CC(C)C)NC(=O)[C@H](CC(N)=O)NC(=O)[C@@H]4CCCN4C(=O)[C@H](CCCNC(=N)N)NC(=O)[C@H](CSSC[C@H](NC(=O)[C@@H](N)CC(=O)O)C(=O)N[C@@H](CC(C)C)C(=O)NCC(=O)N[C@@H](Cc4ccccc4)C(=O)N[C@@H](CCSC)C(=O)N[C@@H](CCCNC(=N)N)C(=O)N[C@@H](CCCCN)C(=O)N2)NC(=O)[C@H](CSSC[C@@H](C(=O)N[C@@H](CCCCN)C(=O)N[C@@H](Cc2ccc(O)cc2)C(=O)N[C@H](C(=O)N[C@@H](Cc2ccccc2)C(N)=O)C(C)C)NC(=O)[C@H](Cc2c[nH]c4ccccc24)NC(=O)[C@H](CCC(=O)O)NC(=O)[C@H](Cc2cnc[nH]2)NC(=O)[C@H]([C@@H](C)O)NC(=O)[C@H](CCCNC(=N)N)NC(=O)[C@H](CO)NC3=O)NC(=O)[C@H](CCCCN)NC(=O)[C@H](CC(=O)O)NC(=O)[C@H](CC(N)=O)NC(=O)[C@H](CC(=O)O)NC(=O)[C@@H]2CCCN2C1=O` [[Glu28]GpTx-1(1-34)] (H-DCLGFMRKCIPDNDKCCRPNLVCSRTHEWCKYVF-NH2; disulfide 2-17, 9-23, 16-30) yielded an IC50 against hNav1.7 [6] of 26 nM. Further, the level at time molar at 2 h in the data set “in vivo” was 1280 ± 403 nM.
